Our source for the Ki values is BindingDB's records for doi:10.1021/bi900258v (Pfizer, 2009).

In test [1] the target is T1, Serine/threonine-protein kinase Chk1 (Homo sapiens, UniProt O14757).
T1 sequence (O14757 whole entry): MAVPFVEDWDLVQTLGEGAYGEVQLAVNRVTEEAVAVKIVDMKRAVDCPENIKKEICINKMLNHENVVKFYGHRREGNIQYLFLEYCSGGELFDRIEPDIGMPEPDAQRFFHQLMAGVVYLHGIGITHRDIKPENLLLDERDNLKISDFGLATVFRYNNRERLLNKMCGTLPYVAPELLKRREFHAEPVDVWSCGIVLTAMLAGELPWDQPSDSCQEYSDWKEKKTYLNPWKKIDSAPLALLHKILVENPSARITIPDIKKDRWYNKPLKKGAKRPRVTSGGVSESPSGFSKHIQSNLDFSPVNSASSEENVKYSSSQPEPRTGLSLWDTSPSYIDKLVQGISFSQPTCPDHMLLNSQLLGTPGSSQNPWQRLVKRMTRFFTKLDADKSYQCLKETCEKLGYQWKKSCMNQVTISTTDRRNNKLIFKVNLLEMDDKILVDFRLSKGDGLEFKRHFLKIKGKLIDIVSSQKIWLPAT
The experiment in a line: CHK1 Inhibition Assay. To be noted: pH 7.4; 22 °C. The text has this:
The inhibitors reported in this study bind to CHK1 according to a general mechanism illustrated in Scheme 1 where E, S, and I stand for enzyme, substrate and inhibitor using Caliper LC-3000 instrument (Caliper Life Science).

For test [2], the target named is T1, Serine/threonine-protein kinase Chk1. As to the kind of experiment: Surface Plasmon Resonance BindingAssay. To be noted: pH 8; 20 °C. How it is done:
Surface plasmon resonance (SPR) biosensor binding studies were conducted using a Biacore 3000 instrument (GE Healtchare).

By Ki is commonly meant a dissociation constant, usually derived from enzyme kinetics or from competition with a known ligand. High values mean weaker binding, low ones tighter binding. Consider `O=C1NN=Cc2c(C(=O)N3C[C@@H](O)[C@@H](O)C3)[nH]c3cc(NC(=O)C4C[C@H]4c4ccccc4)cc1c23` (some centres undefined) [CHK1 compound 1], for which the Ki in test [1] turned out to be 1.75 nM; in test [2], 5.14 nM.

Consider `CC(C)(C)c1ccc(C(=O)NC(=O)Nc2cccc3ccccc23)cc1[N+](=O)O` [CHK1 compound 3], for which the Ki in test [1] turned out to be 146 nM; in test [2], 290 nM.
